Measurements: article PMC8151276, “An Integrated Approach toward NanoBRET Tracers for Analysis of GPCR Ligand Engagement” (Molecules, 2021)

Experiments:
PTGER4 = target: T1, PTGER4 (Homo sapiens, UniProt P35408); test: NanoBRET screen HiBiT-PTGER4 in HEK293; format: binding; details: PTGER4
T1 construct: purchased Promega (in-house HiBiT-GPCR construct library, NanoBRET)
Method: (§1) Each tracer candidate was screened across the entire library of HiBiT-GPCR constructs using NanoBRET as the detection modality. As depicted in Figure 4A, the specificity of interactions was evaluated through decrease in BRET due to competitive displacement of a bound tracer by excess parental compound. Each tracer was analyzed for binding to each HiBiT-GPCR fusion in the absence and in the presence of competing parental compound. Briefly, HEK293 cells were transfected with HiBiT-GPCR constructs diluted into promoterless DNA to reduce expression and maximize translocation to the cell surface. Each tracer candidate was then screened at concentrations of 1 μM and 0.1 μM across cells expressing these fusions. Cells were treated for 1.5 h with tracer either alone or in the presence of 20 μM competing parental compound (i.e., control). BRET was measured upon addition of purified LgBiT and subsequent complementation with HiBiT genetically fused to a GPCR. The specificity of interactions was assessed through a decrease in BRET signal due to competitive displacement of the bound tracer. To further gauge the robustness of these interactions, the fold response over the control (i.e., BRETtracer/BRETcontrol) was calculated. We chose a 1.5-fold response, which translates to ≥7-fold signal over noise as the minimal threshold required to score an interaction as positive. […]. Below we highlight the screening results obtained for our exemplary fluorescent tracers based on Clozapine, Amitriptyline and AZD1283.
(§2) HiBiT-GPCR DNA constructs were diluted in 10 mM Tris pH 8 to a final concentration of 0.01 μg/μL, arrayed in 96-well plates and stored at −20 °C. For transfection, HEK293 cells were suspended in Opti-MEM (without phenol red) supplemented with 2% fetal bovine serum (Seradigm) and 100 units/mL penicillin–streptomycin (Gibco) at a final concentration of 220,000 cells/mL and dispensed into white 96-well plates at 90 μL/well. Subsequent transfections and screens were carried using an Agilent Bravo Automated Liquid Handling Platform. First, the 96-well HiBiT DNA arrays were diluted 25-fold in Opti-MEM (without serum or phenol red) to a final concentration of 0.0004 μg/μL and 20 μL of the diluted DNAs were transferred into new 96-well plates. Next, promoterless carrier DNA (1 μg/μL) was diluted 25-fold (0.04 μg/μL) and then dispensed into the diluted arrays at 20 μL/well. Following brief mixing, Viafect transfection reagent (Promega) diluted 16-fold into Opti-MEM was dispensed into the plates at 40 μL/well. After mixing by pipetting, plates were incubated for 10 min on the pipetting station deck. The DNA-transfection reagent complexes were then added to plates containing cells. To facilitate the screen, 10 μL of DNA-transfection reagent complexes were added in duplicates to the top 4 and bottom 4 rows, resulting in two identical 48-well arrays per plate. Plates with transfected cells were incubated for 18–20 h at 37 °C/5% CO2. A screen of each tracer across the entire library using two different concentrations requires duplicate plates of transfected cells. Depending on the number of tracers being screened, transfections can be scaled up using the same ratios. The next day, for each tracer, four 20× screening solutions in tracer dilution buffer (Promega) were prepared: two duplicates at final concentration of 20 μM and two duplicates at a final concentration of 2 μM. A competing unmodified compound was added to one of each duplicate at a final concentration of 400 μM. The four resulting solutions were diluted 4-fold in Opti-MEM without serum or phenol red to generate 5× solutions (5 µM and 0.5 µM tracer +/− 100 μM competing compound). To screen the library, a BioTek MultiFlo FX liquid dispenser was used to dispense 22.5 µL of tracer solution to the top 4 rows and 22.5 µL tracer + competing compound solution to the 4 bottom rows. Plates were briefly mixed on an orbital shaker and incubated for 1.5 h at room temperature. […]

PTGIR = target: T2, PTGIR (Homo sapiens, UniProt P43119); test: NanoBRET screen HiBiT-PTGIR in HEK293; format: binding; details: PTGIR
T2 construct: purchased Promega (in-house HiBiT-GPCR construct library, NanoBRET)
Method: as §1, §2

T1 sequence (P35408 whole entry): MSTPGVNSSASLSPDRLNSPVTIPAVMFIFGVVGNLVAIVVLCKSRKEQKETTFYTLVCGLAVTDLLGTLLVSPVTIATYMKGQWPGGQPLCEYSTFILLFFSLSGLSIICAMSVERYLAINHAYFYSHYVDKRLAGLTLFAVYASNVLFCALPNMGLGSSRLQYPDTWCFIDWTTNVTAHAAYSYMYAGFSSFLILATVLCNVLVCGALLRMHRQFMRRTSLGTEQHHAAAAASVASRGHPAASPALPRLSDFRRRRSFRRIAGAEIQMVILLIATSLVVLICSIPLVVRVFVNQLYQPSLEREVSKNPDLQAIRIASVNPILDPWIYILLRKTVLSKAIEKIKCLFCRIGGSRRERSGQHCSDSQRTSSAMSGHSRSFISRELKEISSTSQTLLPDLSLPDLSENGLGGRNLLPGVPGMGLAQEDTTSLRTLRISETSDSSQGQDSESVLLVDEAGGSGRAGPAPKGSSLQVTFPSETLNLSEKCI
T2 sequence (P43119 whole entry): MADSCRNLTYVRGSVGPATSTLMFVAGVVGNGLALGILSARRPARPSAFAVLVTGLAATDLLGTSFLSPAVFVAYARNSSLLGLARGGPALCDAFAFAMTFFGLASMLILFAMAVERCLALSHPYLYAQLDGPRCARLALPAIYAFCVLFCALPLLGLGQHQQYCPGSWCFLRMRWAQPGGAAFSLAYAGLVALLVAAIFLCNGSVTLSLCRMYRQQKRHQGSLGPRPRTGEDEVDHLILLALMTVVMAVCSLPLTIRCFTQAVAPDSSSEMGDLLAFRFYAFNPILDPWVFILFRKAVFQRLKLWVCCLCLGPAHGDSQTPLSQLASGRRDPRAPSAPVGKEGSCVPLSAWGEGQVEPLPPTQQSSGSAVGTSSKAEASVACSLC

Q: Cc1nc2n(c(=O)c1CCN1CCC(c3noc4cc(F)ccc34)CC1)CCCC2OC(=O)NCCOCCOCCOCCOCCNC(=O)CCc1ccc2n1[B-](F)(F)[N+]1=C(c3ccc[nH]3)C=CC1=C2 (stereo not shown) [Risperidone-2-NB590] was tested. Which “NanoBRET Fold Response” value (PTGER4; tracer 0.1μM) did it give?
A: 1.00

Q: What about the “NanoBRET Fold Response” value (PTGER4; tracer 1μM) of the same compound?
A: 1.04

Q: What about the “NanoBRET Fold Response” value (PTGIR; tracer 0.1μM) of the same compound?
A: 1.02

Q: And the “NanoBRET Fold Response” value (PTGIR; tracer 1μM)?
A: 1.01
